Assay results: publication PMC6409716, “Centipede KCNQ Inhibitor SsTx Also Targets KV1.3” (Toxins, 2019)
Where two headings read alike, the source gives them in different places. Bridges are numbered along the chain shown (N, C = ends). Where no end group is shown, it is not given here.

Columns and labels:
KV1.3 = target: T1, KV1.3 (Homo sapiens, UniProt P22001); assay: Whole-cell patch-clamp, KV1.3; assay type: cell-based; conditions: whole-cell recording, HEK293T and CHO cells transfected, 1000-ms depolarizing pulse of 10 mV from −80 mV, pH 7.3, room temperature, Hill fit
T1 construct: expressed in transfected cells; host or cells: HEK293T and CHO cells
T1 sequence (P22001 whole entry): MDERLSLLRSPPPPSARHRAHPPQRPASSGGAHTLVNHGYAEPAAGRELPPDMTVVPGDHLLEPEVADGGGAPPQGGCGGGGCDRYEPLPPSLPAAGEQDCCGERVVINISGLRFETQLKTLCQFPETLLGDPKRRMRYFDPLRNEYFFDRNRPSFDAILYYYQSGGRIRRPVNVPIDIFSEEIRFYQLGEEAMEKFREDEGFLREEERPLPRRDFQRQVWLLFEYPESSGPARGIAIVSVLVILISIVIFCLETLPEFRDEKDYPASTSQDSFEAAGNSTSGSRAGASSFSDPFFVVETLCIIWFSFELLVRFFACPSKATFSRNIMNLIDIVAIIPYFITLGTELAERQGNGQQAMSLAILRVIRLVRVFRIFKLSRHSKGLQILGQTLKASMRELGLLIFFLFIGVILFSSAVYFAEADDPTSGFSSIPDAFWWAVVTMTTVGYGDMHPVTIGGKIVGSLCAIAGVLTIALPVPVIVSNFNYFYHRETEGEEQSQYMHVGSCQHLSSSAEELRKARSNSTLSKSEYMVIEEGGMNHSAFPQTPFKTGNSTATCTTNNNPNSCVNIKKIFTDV
Method: (§1) HEK293T and CHO cells were cultured as described in our previous work. The plasmid DNA (5μL, 1 μg/μL) of KV1.3 and KV7.4 channel was mixed with lipofectamine at a ratio of 1:1 in 200 μL Opti-MEM for 15–20 min, and the mixture was transferred to the cells plated in 20 mm cell culture dish for 12 h. After 24 h transfections, electrophysiological experiments were carried out at room temperature.
(§2) The cells expressing KV1.3 and KV7.4 were digested and plated on glass coverslips before current recording. The HEKA EPC10 amplifier (HEKA Elektronik, Ludwigshafen, Germany) was used to record currents in whole cells under the control of PATCHMASTER software (HEKA Elektronik, Ludwigshafen, Germany). A thin-wall borosilicate glass (A-M Systems) was used to pull patch pipettes and then the pipettes were fire-polished to 3–4 megohm. For whole-cell recordings, the capacity current was minimized by amplifier circuitry, and the series resistance was compensated by 30% to 65%. For KV1.3 and KV7.4 channel, intracellular solution contained 140 mM KCl, 10 mM EGTA, 2 mM MgCl2, 1 mM CaCl2, 10 mM HEPES (pH 7.3, adjusted with KOH), and extracellular solution contained 150 mM NaCl, 0.5 mM CaCl2, 5 mM KCl, 1.2 mM MgCl2, 10 mM HEPES (pH 7.3, adjusted with NaOH), and the current traces were tested by a 1000-ms depolarizing pulse of 10 mV from a holding voltage of −80 mV. The Hill logistic equation shown below was used to fit the Dose–response curves:y = 1 − (1 − fmax)/[1 + ([Tx]/IC50) n](1) where n is an empirical Hill coefficient, and fmax is the fraction of current resistant to inhibition at high toxin (Tx) concentration.

KV7.4 = target: T2, KV7.4 (Homo sapiens, UniProt P56696); assay: Whole-cell patch-clamp, KV7.4; assay type: cell-based; conditions: whole-cell recording, HEK293T and CHO cells transfected; 1000-ms depolarizing pulse of 10 mV from −80 mV; pH 7.3; room temperature; Hill fit; n = 5 cells
T2 construct: expressed in transfected cells; host or cells: HEK293T and CHO cells
T2 sequence (P56696 whole entry): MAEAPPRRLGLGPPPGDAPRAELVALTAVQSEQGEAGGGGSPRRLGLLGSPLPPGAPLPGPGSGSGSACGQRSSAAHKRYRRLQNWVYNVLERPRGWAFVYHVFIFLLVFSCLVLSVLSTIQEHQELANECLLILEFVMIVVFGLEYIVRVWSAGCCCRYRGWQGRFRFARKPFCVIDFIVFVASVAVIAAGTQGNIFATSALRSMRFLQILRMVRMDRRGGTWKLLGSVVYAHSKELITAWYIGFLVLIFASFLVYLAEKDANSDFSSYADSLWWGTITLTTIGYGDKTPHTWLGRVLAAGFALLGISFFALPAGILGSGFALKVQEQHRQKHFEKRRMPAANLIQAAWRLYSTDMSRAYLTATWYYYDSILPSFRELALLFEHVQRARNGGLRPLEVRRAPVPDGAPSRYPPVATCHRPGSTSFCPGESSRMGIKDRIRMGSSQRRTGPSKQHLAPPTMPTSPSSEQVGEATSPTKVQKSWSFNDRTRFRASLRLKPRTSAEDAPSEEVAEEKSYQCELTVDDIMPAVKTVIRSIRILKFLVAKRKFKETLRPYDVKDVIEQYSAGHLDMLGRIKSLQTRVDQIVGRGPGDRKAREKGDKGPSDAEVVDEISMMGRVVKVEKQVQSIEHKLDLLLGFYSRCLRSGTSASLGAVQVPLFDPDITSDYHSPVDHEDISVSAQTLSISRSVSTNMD
Method: as §1
as §2, with “The Hill logistic equation shown below was used to fit the Dose–response curves:y = 1 − (1 − fmax)/[1 + ([Tx]/IC50) n](1) where n is an empirical Hill coefficient, and fmax is the fraction of current resistant to inhibition at high toxin (Tx) concentration.” left out

[1] = ref [8]; cited from earlier work
Excerpt: With over 3000 species, centipedes, arthropods of the class Chilopoda are widely distributed in both tropical and subtropical regions. Their first pair of legs have been modified into strong mandibles and venomous fangs called forcipules that play a critical role in defense and predation. Centipede stings occur frequently in areas, such as Hawaii, Brazil, Australia, Taiwan, and Japan, evoking an issue of social health care. Centipede toxins are composite mixtures, which are responsible for both local and systemic reactions. Recently, we have identified and characterized several pep ...

[2] = n = 5 cells, read-out: IC50 on KV1.3 (mutants)

EVIKKDTPYKARKFPYKSECLKACATSFTGGDESRIQEGKPGFFKCTCYFTTG (disulfide 20-46, 24-48) [SsTx_K11A]
IC50 (KV1.3; [2]): 507 ± 0.61 µM

EVIKKDTPYKKAKFPYKSECLKACATSFTGGDESRIQEGKPGFFKCTCYFTTG (disulfide 20-46, 24-48) [SsTx_R12A]
IC50 (KV1.3; [2]): 22.23 ± 0.22 µM

EVIKKDTPYKKRAFPYKSECLKACATSFTGGDESRIQEGKPGFFKCTCYFTTG (disulfide 20-46, 24-48) [SsTx_K13A]
IC50 (KV1.3; [2]): 526.1 ± 0.48 µM

EVIKKDTPYKKRKFPYKSECLKACATSFTGGDESRIQEGKPGFFKCTCYFTTG (disulfide 20-46, 24-48) [SsTx, Ssm Spooky Toxin]
IC50 (KV1.3; n = 10 cells, read-out: IC50 on KV1.3): 5.26 µM
IC50 (KV7.4): 2.8 ± 0.23 µM
lethal toxicity [1]: potent lethal toxicity by causing severe vessels and respiratory disorders or seizures
